Source: patent US20110081296A1, “SYSTEMS AND METHODS FOR IDENTIFICATION OF CILIOPATHY THERAPEUTICS” (RUTGERS, THE STATE UNIVERSITY OF NEW JERSEY, priority 2009, published 2011)

Legend:
Assay type in all cases: cell-based, Caenorhabditis elegans
[1] = system: WT spermatids; assay: in vitro sperm activation of isolated male spermatids, wild type; details: of 1, 10, 100 nM tested
Protocol: (§1) To isolate spermatids, virgin L4 males were isolated for 2-3 days in 20 degrees and cut with a 25g needle on a glass slide in Sperm Media (SM) pH 7.9 with 10 mM Dextrose. For in vitro activation, 20 ug/ml of Pronase or 100 nM monensin (for in vitro sperm crawling experiments) was added to SM as described in [21]. For wortmannin treatment, a 100× wortmannin stock solution in DMSO was added to reach the final concentration of 100 nM into SM. During sperm activation, a round spermatid develops into a motile spermatozoon with a pseudopod (FIG. 16A). This process can be mimicked in vitro by chemical activators such as the ionophore monensin or Pronase. Within 15 min of Pronase application, the majority of WT male spermatids (63.4%, n=347) extend pseudopods (FIGS. 16B and 16B′), and the average length of spermatozoa is 8.13±1.11 μm (±standard deviation [SD], n=95) (FIG. 16B′). […] The diameter of my15 spermatids is also slightly smaller (6.22±0.54 μm, n=136) than WT (6.73±0.65 μm, n=110, p=8.08E-07). In vivo sperm activation defects were observed also in my15 hermaphrodites. […] Thus, cil-1 positively regulates sperm activation in vitro and in vivo. […] To this end, 1 nM, 10 nM, and 100 nM wortmannin, a pharmacological inhibitor of PI 3-kinases that produce PI(3,4,5)P3 from PI(4,5)P2 [27], were applied to WT and my15 spermatids.

[2] = system: my15 spermatids; assay: in vitro sperm activation of isolated male spermatids, cil-1(my15) mutant; details: 100 nM
Protocol: as §1

[3] = system: WT sperm; assay: in vitro sperm crawling on glass slides after chemical activation, wild type; details: n=7
Protocol: (§2) Epifluorescence and Nomarski analyses were performed on a Zeiss Axioplan2 imaging system equipped with 10×, 63× (NA 1.4), 100× (NA 1.4) objectives and a Photometrics Cascade 512B CCD camera using Metamorph software. 3D deconvolution of Z-stacks of epifluorescent image were performed by AutoQuantX program (MediaCybernetics). Confocal images were collected using a 510 LSM META ZEISS. Optical sections were collected between 0.4-1.0 μm and projected as Z-series that were stored as TIFF files and manipulated using Adobe PhotoShopTM. Worms were anesthetized with 1 mM levamisole, mounted on agar pads and maintained at room temperature. For time-lapse microscopy of sperm motility, Nomarski images were taken every 15 seconds for up to 15 minutes. Neuronal images shown in figures are projected epifluorescent Z-stacks af[…] deconvolution except for FIGS. 2C and 2G, which are projected Z-stacks of confocal sections. For electron microscopy, sperm were prepared as known in the art, except that the samples were embedded in LX112 (Ladd Research Industries Inc., Burlington, Va.). To isolate spermatids, virgin L4 males were isolated for 2-3 days in 20 degrees and cut with a 25g needle on a glass slide in Sperm Media (SM) pH 7.9 with 10 mM Dextrose. For in vitro activation, 20 ug/ml of Pronase or 100 nM monensin (for in vitro sperm crawling experiments) was added to SM as described in [21]. […]

[4] = system: my15 sperm; assay: in vitro sperm crawling on glass slides after chemical activation, cil-1(my15) mutant; details: isolated my15 sperm
Protocol: as §2

Row | Compound | most effective concentration for in vitro activation [1] [nM] | activation of male-derived sperm [2] | sperm crawl rate [3] [μm/s] | sperm motility [4]
1 | COC[C@H]1OC(=O)c2coc3c2[C@@]1(C)C1=C(C3=O)[C@@H]2CCC(=O)[C@@]2(C)C[C@H]1OC(C)=O [wortmannin] | 100 | not activated |  | 
2 | CC[C@@]1([C@@H]2O[C@@H]([C@H]3O[C@@](O)(CO)[C@H](C)C[C@@H]3C)C[C@@H]2C)CC[C@H]([C@]2(C)CC[C@]3(C[C@H](O)[C@@H](C)[C@@H]([C@@H](C)[C@@H](OC)[C@H](C)C(=O)O)O3)O2)O1 [monensin] |  |  | 0.33±0.04 | immotile
